Source: patent publication US9919941B2, “Multiple uses of amine salts for industrial water treatment” (AMSA, Inc., priority 2012, dated 2018)
Read-outs that look alike come from different tables or passages of the source.

Tested on: planktonic microbial population of cooling tower water
Experiment: time-kill biocidal efficacy, hybrid planktonic-sessile procedure: planktonic population
Format: cell-based, natural mixed aerobic microbial population
Details: for reduction in the total planktonic population / Planktonic, 20-24 h, % of Control / Planktonic, 48-54 h, % of Control / Planktonic, 120 h, % of Control / Planktonic CFU/10 mL, 20-24 h / Planktonic CFU/10 mL, 48-54 h / Planktonic CFU/10 mL, 120 h / Planktonic CFU/10 mL, Total / Planktonic, Total, % of Control / activity at 10 ppm: 10 ppm Compound B, others equimolar; for reduction in the total planktonic population: 110 minutes; for Planktonic, 20-24 h, % of Control / Planktonic, 48-54 h, % of Control / Planktonic, 120 h, % of Control / Planktonic CFU/10 mL, 20-24 h / Planktonic CFU/10 mL, 48-54 h / Planktonic CFU/10 mL, 120 h / Planktonic CFU/10 mL, Total / Planktonic, Total, % of Control / activity at 10 ppm: exposure 110 minutes; for Planktonic CFU/10 mL, 20-24 h: fast growing population; for Planktonic CFU/10 mL, 48-54 h: moderate growth rate population; for Planktonic CFU/10 mL, 120 h: slow growth rate population
Method: An experiment was conducted to assess biocidal effectiveness of Compounds A and B and their respective Compounds 13 and 1 anion analogs. Time-kill tests were conducted using a hybrid planktonic-sessile procedure which allowed assessment of biocidal effectiveness against both planktonic and sessile microbial populations. A natural mixed aerobic microbial population in samples collected from an operating cooling tower was used as inoculum for the test. Biocide test concentration for Compound B was 10 ppm. All other products were tested at the equivalent molar concentration. Biocide exposure was 110 minutes. The following procedure was used which generally followed the biocidal testing method of Walter, R. W. and Cooke, L. […] A New Multifunctional Biocide Which Enhances Corrosion Inhibition,” NACE Paper 410, 1997. A water sample was collected from a cooling tower that contained a natural mixed population of microorganisms that grew at different rates when plated on Petrifilm. The populations of cells that grew on Petrifilm in 20-24 hours, 48-54 hours and at 120 hours were treated as separate populations. […] The washers were allowed seven days to develop a biofilm on their surface. Prior to chemical treatment, 10 mL aliquots of the CTW were removed from the beaker and placed into individual exposure test tubes along with a single washer. Test compounds were then added to the individual tubes at equimolar concentrations. All exposure tests including untreated controls were conducted in triplicate (i.e., three washers in separate exposure tubes). After addition of the test compound, the tube was briefly mixed by mild vortexing and again occasionally throughout the exposure time. Determination of residual viable cell population in the bulk water: 1 mL of the water from the exposure tube was plated on petrifilm. A second 1 ml was added to 9 mL tube of Letheen broth and mixed by shaking 10 times. A 1 mL aliquot was plated on petrifilm, a second 1 mL aliquot was added to a 9 ml tube of Butterfields Broth and again shaken 10 times. This serial sequence of plating the dilution and subsequent 1/10 dilution was repeated through 10^-4 to 10^-5 dilution. Determination of colony forming units (CFU) at different incubation times: After plating the various solutions on Petrifilm, the films were incubated at 36° C. for the first 24 hours. At 20 hours the […] read and CFU were recorded. This population was defined as a fast growing population. The […] then incubated for additional time either at 36° C. or room temperature and read at 54 hours. This second population is in addition to the fast growth rate population and was defined as moderate growth rate organisms. Incubation was continued and the […] again after 120 hours. This third population was also treated as separate from the fast and moderate growth rate populations and is referred to as the slow growth rate population. As noted above, each compound was evaluated in triplicate with three separate washers and the results were averaged. Average CFU/mL values were used to calculate total planktonic test population (CFU/10 mL) and total sessile test population (CFU/washer) in each test system.

SMILES | reduction in the total planktonic population [%] | Planktonic, 20-24 h, % of Control (20-24 h incubation) [%] | Planktonic, 48-54 h, % of Control (48-54 h incubation) [%] | Planktonic, 120 h, % of Control (120 h incubation) [%] | Planktonic CFU/10 mL, 20-24 h (20-24 h incubation) [CFU/10 mL] | Planktonic CFU/10 mL, 48-54 h (48-54 h incubation) | Planktonic CFU/10 mL, 120 h (120 h incubation) | Planktonic CFU/10 mL, Total (total population) | Planktonic, Total, % of Control (total population) [%] | biocidal effectiveness compared with parent salt (in words) (planktonic and sessile populations, same experimental conditions and molar concentration) | activity at 10 ppm (20-24 h incubation, read-out: Planktonic, 20-24 h, % of Control) [%] | activity at 10 ppm (48-54 h incubation, read-out: Planktonic, 48-54 h, % of Control) [%] | activity at 10 ppm (110 min, total population, read-out: Planktonic, Total, % of Control) [%] | activity at 10 ppm (120 h incubation, read-out: Planktonic, 120 h, % of Control) [%]
CC(=O)O.CCCCCCCCCCOCCCN [Compound B, ethanoic acid salt of aminopropyloxydecane] | 63 | 81.7 | 85.0 | 34.6 | 810 | 320,000 CFU/10 mL | 2,780,000 CFU/10 mL | 3,100,000 CFU/10 mL | 36.8 |  |  |  |  | 
CCCCCCCCCCOCCCN.O=C(O)CC(O)(CC(=O)O)C(=O)O [Compound 1, 2-hydroxypropane-1,2,3-tricarboxylic acid salt of aminopropyloxydecane] |  | 97.9 | 90.3 | 28.4 | 970 | 340,000 CFU/10 mL | 2,280,000 CFU/10 mL | 2,620,000 CFU/10 mL | 31.1 | very similar (within experimental error) to those obtained with Compound B |  |  |  | 
CCCCCCCCCCSCCN.Cl [Compound A, 2-(decylthio)ethanamine hydrochloride] | 97 |  |  |  | 940 | 13,500 CFU/10 mL | 227,000 CFU/10 mL | 241,000 CFU/10 mL |  |  | 94.9 | 3.6 | 2.9 | 2.8
